Results as given in patent US7825253B2, “2-aminoquinoline derivatives” (Hoffmann-La Roche Inc., priority 2006, dated 2010).

target: T1, recombinant human 5-HT5A receptor (Homo sapiens, UniProt P47898); experiment: [3H]LSD radioligand binding assay; details: [3H]LSD approx. 1 nM; membranes from HEK-EBNA cells transiently expressing 5-HT5A; Ki from IC50 by Cheng-Prussoff
T1 construct: expressed in transfected cells; host or cells: Human Embryonic Kidney-EBNA (HEK-EBNA) cells, transient cDNA expression; membranes
T1 sequence (P47898 whole entry): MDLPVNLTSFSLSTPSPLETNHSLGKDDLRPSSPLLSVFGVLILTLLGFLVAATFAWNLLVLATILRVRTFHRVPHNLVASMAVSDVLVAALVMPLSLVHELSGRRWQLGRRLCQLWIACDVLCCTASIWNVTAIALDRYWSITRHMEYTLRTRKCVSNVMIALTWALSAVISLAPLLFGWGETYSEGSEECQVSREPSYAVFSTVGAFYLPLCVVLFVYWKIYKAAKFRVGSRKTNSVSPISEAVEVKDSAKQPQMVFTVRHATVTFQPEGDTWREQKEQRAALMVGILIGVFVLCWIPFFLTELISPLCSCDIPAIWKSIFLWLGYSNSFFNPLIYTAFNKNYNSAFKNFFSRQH
Method: A [^3H]LSD radioligand binding assay was used to determine the affinity of the compounds for the recombinant human 5-HT5A receptor, in membranes from transiently (cDNA) expressed 5-HT5A receptors in Human Embryonic Kidney-EBNA (HEK-EBNA) cells. Assay buffer consisted of Tris (50 mM) buffer containing 1 mM EGTA, 10 mM MgCl2 (pH 7.4) and 10 μM pargyline. The binding assay was carried out in 96-well-plates in the presence of [^3H]LSD (approximately 1 nM), approximately 2 μg/well of membrane protein, and 0.5 mg of Ysi-poly-l-lysine SPA beads in a final volume of 200 μl of buffer. Non-specific binding was defined using methiothepin 2 μM. Compounds were tested at 10 concentrations. All assays were conducted in duplicate and repeated at least two times. Assay plates were incubated for 120 min at room temperature before centrifugation. Bound ligand was determined using a Packard Topcount scintillation counter. IC50 values were calculated using a non-linear curve fitting program and Ki values calculated using the Cheng-Prussoff equation.

| Ki [nM] | Structure (SMILES) |
| --- | --- |
| 10.1 | Cc1cc2cccc(Nc3ccc4c(NCc5cccc6[nH]ccc56)cccc4n3)c2o1 [Example 111, N5-(1H-Indol-4-ylmethyl)-N2-(2-methyl-benzofuran-7-yl)-quinoline-2,5-diamine] |
| 20.6 | Cc1cc2cccc(Nc3ccc4c(Nc5cccc6[nH]ccc56)cccc4n3)c2o1 [Example 113, N5-(1H-Indol-4-yl)-N2-(2-methyl-benzofuran-7-yl)-quinoline-2,5-diamine] |
| 3.33 | COc1ccccc1CNc1ccc2c(NCc3ccc4nc[nH]c4c3)cccc2n1 [Example 114, N5-(3H-Benzoimidazol-5-ylmethyl)-N2-(2-methoxy-benzyl)-quinoline-2,5-diamine] |
| 35.3 | Cc1ccc(CNc2ccc3c(NCc4cnn[nH]4)cccc3n2)o1 [Example 115, N2-(5-Methyl-furan-2-ylmethyl)-N5-(3H-[1,2,3]triazol-4-ylmethyl)-quinoline-2,5-diamine] |
| 32.9 | FC(F)(F)Oc1ccccc1CNc1ccc2c(NCc3cccc4[nH]ccc34)cccc2n1 [Example 116, N5-(1H-Indol-4-ylmethyl)-N2-(2-trifluoromethoxy-benzyl)-quinoline-2,5-diamine] |
| 32.4 | FC(F)(F)Oc1ccccc1CNc1ccc2c(NCc3ccc4[nH]cnc4c3)cccc2n1 [Example 117, N5-(1H-Benzoimidazol-5-ylmethyl)-N2-(2-trifluoromethoxy-benzyl)-quinoline-2,5-diamine] |
| 5.66 | c1cc(CNc2ccc3c(NCc4cccc5[nH]ccc45)cccc3n2)c2c(c1)OCCO2 [Example 118, N2-(2,3-Dihydro-benzo[1,4]dioxin-5-ylmethyl)-N5-(1H-indol-4-ylmethyl)-quinoline-2,5-diamine] |
| 8.45 | Cc1ccc(CNc2ccc3c(Nc4ccc(F)c5[nH]ccc45)cccc3n2)o1 [Example 119, N5-(7-Fluoro-1H-indol-4-yl)-N2-(5-methyl-furan-2-ylmethyl)-quinoline-2,5-diamine] |
| 8.45 | Cc1ccc(CNc2ccc3c(NCc4cc(F)cc(F)c4)cccc3n2)o1 [Example 120, N5-(3,5-Difluoro-benzyl)-N2-(5-methyl-furan-2-ylmethyl)-quinoline-2,5-diamine] |
| 6.29 | Cc1cc2cccc(Nc3ccc4c(NCc5ccc6[nH]cnc6c5)cccc4n3)c2o1 [Example 124, N5-(1H-Benzoimidazol-5-ylmethyl)-N2-(2-methyl-benzofuran-7-yl)-quinoline-2,5-diamine] |
| 2.33 | Cc1cc2cccc(Nc3ccc4c(NCc5[nH]cnc5C)cccc4n3)c2o1 [Example 125, N2-(2-Methyl-benzofuran-7-yl)-N5-(5-methyl-3H-imidazol-4-ylmethyl)-quinoline-2,5-diamine] |
| 79.7 | Cc1cc2cccc(Nc3ccc4c(NS(=O)(=O)c5ccc(F)cc5)cccc4n3)c2o1 [Example 128, 4-Fluoro-N-[2-(2-methyl-benzofuran-7-ylamino)-quinolin-5-yl]-benzenesulfonamide] |
| 16 | Cc1cc2cccc(Nc3ccc4c(NCc5cccnc5)cccc4n3)c2o1 [Example 129, N2-(2-Methyl-benzofuran-7-yl)-N5-pyridin-3-ylmethyl-quinoline-2,5-diamine] |
| 17.4 | Cc1cc2cccc(Nc3ccc4c(NCc5cnc[nH]5)cccc4n3)c2o1 [Example 131, N5-(3H-Imidazol-4-ylmethyl)-N2-(2-methyl-benzofuran-7-yl)-quinoline-2,5-diamine] |
| 15 | Cc1cc2cccc(Nc3ccc4c(NCc5cc(F)cc(F)c5)cccc4n3)c2o1 [Example 132, N5-(3,5-Difluoro-benzyl)-N2-(2-methyl-benzofuran-7-yl)-quinoline-2,5-diamine] |
| 50.9 | COc1ccccc1CNc1ccc2c(C(=O)c3ccc(F)cc3)cccc2n1 [Example 137, (4-Fluoro-phenyl)-[2-(2-methoxy-benzylamino)-quinolin-5-yl]-methanone] |
| 35.5 | O=S(=O)(Nc1cccc2nc(Nc3cccc4c3OCC4)ccc12)c1cc(F)cc(F)c1 [Example 139, N-[2-(2,3-Dihydro-benzofuran-7-ylamino)-quinolin-5-yl]-3,5-difluoro-benzenesulfonamide] |
| 11.9 | CC1Cc2cccc(Nc3ccc4c(NCc5cccc6[nH]ccc56)cccc4n3)c2O1 (centres unmarked) [Example 140, N5-(1H-Indol-4-ylmethyl)-N2-(2-methyl-2,3-dihydro-benzofuran-7-yl)-quinoline-2,5-diamine] |
| 22 | CC1(C)Cc2cccc(Nc3ccc4c(NS(=O)(=O)c5cc(F)cc(F)c5)cccc4n3)c2O1 [Example 141, N-[2-(2,2-Dimethyl-2,3-dihydro-benzofuran-7-ylamino)-quinolin-5-yl]-3,5-difluoro-benzenesulfonamide] |
| 51.3 | Cc1ccc(CNc2ccc3c(NS(=O)(=O)Nc4ccccc4)cccc3n2)o1 [Example 145, N-(2-{[(5-methyl-2-furyl)methyl]amino}quinolin-5-yl)-N′-phenylsulfamide] |
| 4.31 | CC1(C)Cc2cccc(Nc3ccc4c(NCc5cccc6[nH]ccc56)cccc4n3)c2O1 [Example 147, N2-(2,2-Dimethyl-2,3-dihydro-benzofuran-7-yl)-N5-(1H-indol-4-ylmethyl)-quinoline-2,5-diamine] |
| 3.08 | CC1(C)Cc2cccc(Nc3ccc4c(NCc5ccc6[nH]cnc6c5)cccc4n3)c2O1 [Example 148, N5-(1H-Benzoimidazol-5-ylmethyl)-N2-(2,2-dimethyl-2,3-dihydro-benzofuran-7-yl)-quinoline-2,5-diamine] |
| 3.97 | Cc1nc[nH]c1CNc1cccc2nc(Nc3cccc4c3OC(C)(C)C4)ccc12 [Example 149, N2-(2,2-Dimethyl-2,3-dihydro-benzofuran-7-yl)-N5-(5-methyl-3H-imidazol-4-ylmethyl)-quinoline-2,5-diamine] |
| 25.5 | Cc1ccc(CNc2ccc3c(NS(=O)(=O)Nc4ccc(F)cc4)cccc3n2)o1 [Example 154, N-(2-{[(5-methyl-2-furyl)methyl]amino}quinolin-5-yl)-N′-(4-fluorophenyl)sulfamide] |
| 45.1 | CC1(C)Cc2cccc(Nc3ccc4c(NS(=O)(=O)Nc5ccc(F)cc5)cccc4n3)c2O1 [Example 156, N-{2-[(2,2-dimethyl-2,3-dihydro-1-benzofuran-7-yl)amino]quinolin-5-yl}-N′-(4-fluorophenyl)sulfamide] |
| 28.3 | O=S(=O)(Nc1cccc2nc(Nc3cccc(C4CC4)c3)ccc12)c1cc(F)cc(F)c1 [Example 159, N-[2-(3-Cyclopropyl-phenylamino)-quinolin-5-yl]-3,5-difluoro-benzenesulfonamide] |
| 35.5 | CC(C)(C)c1cccc(Nc2ccc3c(NS(=O)(=O)c4cc(F)cc(F)c4)cccc3n2)c1 [Example 161, N-[2-(3-tert-Butyl-phenylamino)-quinolin-5-yl]-3,5-difluoro-benzenesulfonamide] |
| 9.92 | CC1(C)Cc2cccc(Nc3ccc4c(NCc5cccnc5)cccc4n3)c2O1 [Example 163, N2-(2,2-Dimethyl-2,3-dihydro-benzofuran-7-yl)-N5-pyridin-3-ylmethyl-quinoline-2,5-diamine] |

| Structure (SMILES) | Ki [nM] |
| --- | --- |
| Cc1ccc(CNc2ccc3c(N[C@H]4CCS(=O)(=O)c5ccccc54)cccc3n2)o1 [Example 152, (R)— and (S)—N5-((S)-1,1-Dioxo-1l6-thiochroman-4-yl)-N2-(5-methyl-furan-2-ylmethyl)-quinoline-2,5-diamine] | 14.7 |
